Results as given in ChEMBL document CHEMBL1201862, “PubChem BioAssay data set” (2004).
Active and inactive are the calls of the source.

Tests used:
[1] = blockade of melanocortin 4 receptor signaling – cell-based, plate reader, cherry pick, counter-screen for LGR2 antagonist project, dose response (AID 743444); format: functional;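 also: transfected HEK 293 cells stimulated with alpha-MSH peptide; potency of inhibitors of the alpha-MSH evoked signal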
HT-1080 = experiment: HT1080 cell viability loss – fluorescence readout (AID 620); format: functional, cell-based; settings: Homo sapiens
[2] = toxicity toward HepG2 liver cells – cell-based, plate reader, cherry-pick, antagonist series, cytotoxicity control, dose response (AID 743416); format: functional
[3] = viability loss in HEK293 cells – cell-based, plate reader, cherry-picked samples, cytotoxicity control, dose response (AID 743446); format: functional
[4] = target: Luciferin 4-monooxygenase (Photinus pyralis, UniProt P08659); experiment: Counter Screen for Luciferase-based Assay Positives. [Related pubchem assays: 620, 618, 411 ]
Luciferin 4-monooxygenase, sequence (P08659 whole entry): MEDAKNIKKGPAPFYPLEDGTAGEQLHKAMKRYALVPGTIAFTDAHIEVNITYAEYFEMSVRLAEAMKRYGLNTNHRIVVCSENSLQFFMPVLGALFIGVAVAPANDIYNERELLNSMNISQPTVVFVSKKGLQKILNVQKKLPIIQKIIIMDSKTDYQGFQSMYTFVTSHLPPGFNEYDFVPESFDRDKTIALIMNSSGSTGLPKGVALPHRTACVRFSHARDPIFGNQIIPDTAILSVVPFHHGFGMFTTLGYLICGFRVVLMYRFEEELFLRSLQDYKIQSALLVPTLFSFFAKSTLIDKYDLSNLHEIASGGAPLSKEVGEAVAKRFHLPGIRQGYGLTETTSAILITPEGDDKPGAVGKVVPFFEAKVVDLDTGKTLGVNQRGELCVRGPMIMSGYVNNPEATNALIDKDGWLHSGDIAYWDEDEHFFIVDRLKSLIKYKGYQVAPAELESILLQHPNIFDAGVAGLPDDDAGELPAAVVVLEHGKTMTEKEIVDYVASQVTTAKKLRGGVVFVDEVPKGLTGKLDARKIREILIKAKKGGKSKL

[5] = target: T1, Calpain-2 catalytic subunit (Sus scrofa, UniProt P43367); experiment: m-calpain protease blockers, concentration series – biochemical, fluorogenic peptide substrate, dose response (AID 1420); format: functional
T1 sequence (P43367 whole entry): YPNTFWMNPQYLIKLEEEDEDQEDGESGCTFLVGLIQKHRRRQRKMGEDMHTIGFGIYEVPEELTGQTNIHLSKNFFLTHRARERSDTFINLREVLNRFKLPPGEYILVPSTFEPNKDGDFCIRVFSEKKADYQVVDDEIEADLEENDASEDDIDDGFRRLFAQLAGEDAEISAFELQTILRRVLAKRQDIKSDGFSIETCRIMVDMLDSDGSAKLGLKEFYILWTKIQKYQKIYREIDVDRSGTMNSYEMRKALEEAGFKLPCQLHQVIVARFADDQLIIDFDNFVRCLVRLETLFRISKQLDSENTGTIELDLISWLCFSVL

[6] = A549 cell cytotoxicity, dose response, cytotoxicity control, plate reader, cherry-pick, antagonist series (AID 743412); format: functional, cell-based
[7] = blockers of bursicon-stimulated LGR2 cAMP reporter – cell-based, HEK293, CRE-luciferase reporter, cherry pick, set 2, dose response (AID 743343); format: functional;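 also: transfected cells were stimulated with diluted bursicon conditioned medium after compound addition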
[8] = blockers of HIV-1 envelope-mediated cell-cell fusion – cherry-pick, dose response (AID 652057); format: functional, cell-based
[9] = viability loss in CEM21 cells – cell-based, CellTiter-Glo luminescence, cherry-picked, cytotoxicity control for viral fusion inhibitor project, dose response (AID 652042); format: functional;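 also: potency for signal decrease meaning cytotoxicity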
[10] = HIV-1 AD8 envelope cell-cell fusion blockers – cherry-pick, dose response (AID 652062); format: functional, cell-based;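 also: luciferase signal from cell-cell fusion driven by HIV-1 clade B AD8 Env; potency is for inhibitors of fusion seen as a drop in luminescence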
cells = format: functional, cell-based
[11] = target: T2, DNA repair protein RAD52 homolog (Homo sapiens, UniProt P43351); format: functional, biochemical
T2 sequence (P43351 whole entry): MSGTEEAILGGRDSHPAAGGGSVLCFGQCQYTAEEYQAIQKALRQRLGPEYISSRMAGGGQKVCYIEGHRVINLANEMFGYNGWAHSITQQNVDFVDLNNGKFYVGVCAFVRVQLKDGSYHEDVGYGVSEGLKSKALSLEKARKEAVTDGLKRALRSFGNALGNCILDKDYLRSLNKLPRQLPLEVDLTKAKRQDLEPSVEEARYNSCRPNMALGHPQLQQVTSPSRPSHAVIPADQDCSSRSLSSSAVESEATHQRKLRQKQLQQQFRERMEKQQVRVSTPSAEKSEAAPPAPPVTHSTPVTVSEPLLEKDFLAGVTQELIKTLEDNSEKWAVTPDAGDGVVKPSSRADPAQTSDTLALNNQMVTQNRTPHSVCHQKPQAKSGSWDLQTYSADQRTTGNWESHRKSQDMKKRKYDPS

[12] = target: T3, Nuclear receptor subfamily 0 group B member 1 (Homo sapiens, UniProt P51843); format: functional, cell-based;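 also: HEK293T cells transfected with SF-1 and DAX-1 plus StAR promoter luciferase reporter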
T3 sequence (P51843 whole entry): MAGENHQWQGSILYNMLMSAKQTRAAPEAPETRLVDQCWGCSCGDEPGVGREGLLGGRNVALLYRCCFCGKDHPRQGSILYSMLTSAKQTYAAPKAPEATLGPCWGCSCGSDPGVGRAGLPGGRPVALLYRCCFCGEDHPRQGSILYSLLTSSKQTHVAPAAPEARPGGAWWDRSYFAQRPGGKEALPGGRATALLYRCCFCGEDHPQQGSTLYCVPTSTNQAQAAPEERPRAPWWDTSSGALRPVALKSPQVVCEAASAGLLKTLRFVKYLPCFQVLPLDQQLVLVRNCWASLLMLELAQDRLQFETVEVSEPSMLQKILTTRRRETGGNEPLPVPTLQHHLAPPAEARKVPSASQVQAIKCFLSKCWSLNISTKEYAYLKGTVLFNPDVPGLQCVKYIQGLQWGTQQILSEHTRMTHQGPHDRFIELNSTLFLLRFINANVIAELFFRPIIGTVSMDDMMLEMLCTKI

[13] = target: T4, Sentrin-specific protease 8 (Homo sapiens, UniProt Q96LD8); format: functional;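 also: luminescence read-out of SENP8 inhibition, dose-response confirmation following an ultra-high-throughput screen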
T4 sequence (Q96LD8 whole entry): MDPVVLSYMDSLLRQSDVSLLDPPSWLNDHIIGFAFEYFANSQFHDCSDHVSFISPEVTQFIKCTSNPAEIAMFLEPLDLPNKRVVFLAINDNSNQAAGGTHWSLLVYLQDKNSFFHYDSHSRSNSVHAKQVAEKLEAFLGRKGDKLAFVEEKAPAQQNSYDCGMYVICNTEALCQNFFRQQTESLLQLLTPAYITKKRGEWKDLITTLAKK

[14] = target: T5, Sentrin-specific protease 6 (Homo sapiens, UniProt Q9GZR1); format: functional;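 also: Luminescence-based dose-response confirmatory assay of SENP6 inhibition, following up an ultra-high-throughput screen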
T5 sequence (Q9GZR1 whole entry): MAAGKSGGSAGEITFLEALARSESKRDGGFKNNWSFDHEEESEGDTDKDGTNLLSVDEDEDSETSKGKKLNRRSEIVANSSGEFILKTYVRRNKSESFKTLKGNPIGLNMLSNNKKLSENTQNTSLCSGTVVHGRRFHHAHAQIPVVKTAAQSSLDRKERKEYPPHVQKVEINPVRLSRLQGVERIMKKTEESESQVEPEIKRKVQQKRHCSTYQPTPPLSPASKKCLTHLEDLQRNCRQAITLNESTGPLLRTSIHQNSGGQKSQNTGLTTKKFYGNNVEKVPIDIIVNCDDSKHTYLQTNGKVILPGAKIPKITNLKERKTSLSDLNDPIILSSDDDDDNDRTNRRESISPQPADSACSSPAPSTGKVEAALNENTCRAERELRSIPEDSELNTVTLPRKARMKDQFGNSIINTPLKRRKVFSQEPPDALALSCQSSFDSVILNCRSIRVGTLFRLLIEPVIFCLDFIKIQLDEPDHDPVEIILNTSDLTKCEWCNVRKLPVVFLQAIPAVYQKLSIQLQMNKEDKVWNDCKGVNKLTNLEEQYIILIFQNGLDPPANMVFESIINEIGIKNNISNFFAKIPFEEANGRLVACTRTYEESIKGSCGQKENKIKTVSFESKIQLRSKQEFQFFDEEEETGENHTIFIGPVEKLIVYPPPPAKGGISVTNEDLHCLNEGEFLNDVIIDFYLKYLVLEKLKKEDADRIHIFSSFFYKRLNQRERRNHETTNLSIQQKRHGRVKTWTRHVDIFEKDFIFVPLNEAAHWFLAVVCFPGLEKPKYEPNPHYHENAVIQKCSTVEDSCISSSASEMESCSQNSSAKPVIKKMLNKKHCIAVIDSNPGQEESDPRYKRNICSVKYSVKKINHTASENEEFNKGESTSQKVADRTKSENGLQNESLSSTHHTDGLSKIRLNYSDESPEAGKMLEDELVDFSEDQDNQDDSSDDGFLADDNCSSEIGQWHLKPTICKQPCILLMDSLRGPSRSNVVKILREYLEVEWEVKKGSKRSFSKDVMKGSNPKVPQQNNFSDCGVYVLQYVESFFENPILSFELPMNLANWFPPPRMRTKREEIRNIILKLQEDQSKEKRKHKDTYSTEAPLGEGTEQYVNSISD

[15] = target: T6, Sentrin-specific protease 7 (Homo sapiens, UniProt Q9BQF6); format: functional;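 also: Luminescence-based dose-response confirmation of ultra-high-throughput screening hits, measuring inhibition of SENP7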
T6 sequence (Q9BQF6 whole entry): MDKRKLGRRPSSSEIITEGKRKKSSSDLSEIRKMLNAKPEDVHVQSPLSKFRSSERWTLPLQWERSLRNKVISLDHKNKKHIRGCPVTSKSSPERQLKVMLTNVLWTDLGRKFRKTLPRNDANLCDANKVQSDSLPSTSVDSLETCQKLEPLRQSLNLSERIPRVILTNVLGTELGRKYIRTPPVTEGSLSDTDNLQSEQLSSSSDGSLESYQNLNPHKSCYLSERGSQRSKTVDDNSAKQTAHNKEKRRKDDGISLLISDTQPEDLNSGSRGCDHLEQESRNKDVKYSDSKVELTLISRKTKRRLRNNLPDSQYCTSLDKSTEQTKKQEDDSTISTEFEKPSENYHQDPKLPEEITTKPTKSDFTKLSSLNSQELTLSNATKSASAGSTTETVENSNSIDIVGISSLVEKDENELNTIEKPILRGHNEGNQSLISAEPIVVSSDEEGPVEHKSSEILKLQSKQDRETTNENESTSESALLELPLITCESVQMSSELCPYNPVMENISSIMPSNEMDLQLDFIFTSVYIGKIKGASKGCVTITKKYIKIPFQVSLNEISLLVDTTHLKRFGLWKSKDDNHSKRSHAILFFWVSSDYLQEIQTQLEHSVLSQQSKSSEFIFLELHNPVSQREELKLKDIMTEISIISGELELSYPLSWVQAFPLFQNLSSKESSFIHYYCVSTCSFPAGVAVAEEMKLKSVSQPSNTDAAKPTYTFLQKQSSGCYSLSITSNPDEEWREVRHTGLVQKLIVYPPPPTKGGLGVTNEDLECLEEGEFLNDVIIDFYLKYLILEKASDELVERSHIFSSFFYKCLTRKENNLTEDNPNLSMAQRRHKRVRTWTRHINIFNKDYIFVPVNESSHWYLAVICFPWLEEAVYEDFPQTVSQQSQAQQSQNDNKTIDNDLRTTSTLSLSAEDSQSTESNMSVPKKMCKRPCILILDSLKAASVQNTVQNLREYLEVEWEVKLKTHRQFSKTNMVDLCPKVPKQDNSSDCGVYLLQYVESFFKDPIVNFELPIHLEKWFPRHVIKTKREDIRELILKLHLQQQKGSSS

Caspase-3 = target: T7, Caspase-3 (Homo sapiens, UniProt P42574); format: functional;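 also: Dose-response selectivity test against caspase-3 for candidate inhibitors of sentrin-specific proteases (SENPs)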
T7 sequence (P42574 whole entry): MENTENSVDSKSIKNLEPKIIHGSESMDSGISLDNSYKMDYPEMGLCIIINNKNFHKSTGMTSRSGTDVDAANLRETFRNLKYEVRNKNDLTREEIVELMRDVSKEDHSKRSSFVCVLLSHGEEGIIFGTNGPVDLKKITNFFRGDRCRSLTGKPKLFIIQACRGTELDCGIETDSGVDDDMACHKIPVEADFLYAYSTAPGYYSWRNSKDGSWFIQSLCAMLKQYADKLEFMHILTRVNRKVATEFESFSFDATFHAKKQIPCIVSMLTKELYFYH

[16] = blockers of HIV-1 ZM109 envelope-driven cell-cell fusion – HeLa effector, CEM target cells, luciferase, cherry-pick, dose response (AID 652058); format: functional, cell-based;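 also: luciferase signal from HIV-1 Env mediated cell-cell fusion of effector and target cells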
[17] = off-target signal loss in HeLa-CEM21 co-culture – HeLa F-luc CTL cells, cherry-picked, counter-screen for HIV-1 Env fusion inhibitor project, dose response (AID 652040); format: functional, cell-based;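 also: potency for signal decrease marking cytotoxic or nonspecific inhibition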
[18] = Luminescence Cell-Based Dose Retest to Confirm Inhibitors of Cancer Stem Cells. [Related pubchem assays (depositor defined):AID2717, AID2721]; format: functional; settings: Homo sapiens
[19] = general cell-killing toxicity readout – plate reader, dry powder samples, cytotoxicity control for PAX8 inhibitor project, dose response (AID 743021); format: functional, cell-based
INS1 = experiment: INS-1E survival protection against cytokine death – cell-based, luminescence, retest, dose response (AID 449756); format: functional; settings: Rattus norvegicus;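 also: cell death triggered by IL-1 beta plus TNF-alpha plus IFN-gamma mixture; protective hits raise ATP signal compared with cytokine alone wells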
Paired box protein Pax-8 = Paired box protein Pax-8 (Homo sapiens, UniProt Q06710); experiment: PAX8 transcriptional activity inhibition in RMG-I – RMG-I cells, luciferase, cherry-pick, dose response (AID 687027); format: functional, cell-based;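 also: luciferase reporter driven by Pax8 target thyroperoxidase promoter measured by SteadyGlo luminescence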
Paired box protein Pax-8, sequence (Q06710 whole entry): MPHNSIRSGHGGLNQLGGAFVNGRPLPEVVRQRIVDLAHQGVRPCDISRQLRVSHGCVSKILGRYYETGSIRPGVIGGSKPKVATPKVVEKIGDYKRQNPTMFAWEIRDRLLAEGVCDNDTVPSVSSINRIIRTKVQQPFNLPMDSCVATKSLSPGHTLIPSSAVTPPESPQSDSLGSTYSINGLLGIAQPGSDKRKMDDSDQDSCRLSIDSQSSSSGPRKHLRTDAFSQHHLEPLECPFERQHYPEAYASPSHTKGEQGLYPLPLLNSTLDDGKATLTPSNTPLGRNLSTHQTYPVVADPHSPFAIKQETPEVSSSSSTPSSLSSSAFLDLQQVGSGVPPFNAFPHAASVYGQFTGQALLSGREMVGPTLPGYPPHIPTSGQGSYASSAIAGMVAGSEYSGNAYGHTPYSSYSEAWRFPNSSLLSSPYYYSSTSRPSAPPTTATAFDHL

## Cc1ccnc(Nc2nc3ccccc3o2)n1
[1]
  AC50: 4.77 µM (active)
HT-1080
  EC50: > 50 µM (not active)
[2]
  AC50: 46.8 µM (active)
[3]
  AC50: 30.1 µM (active)
[4]
  EC50: 3.04 µM (active)
[5]
  IC50: > 50 µM (not active)
[6]
  AC50: 43.5 µM (active)
[7]
  AC50: 5.98 µM (active)

## Cn1c(=O)c2c(nc(NCCc3ccccc3)n2Cc2ccccc2)n(C)c1=O
[8]
  AC50: 30.8 µM (active)
[9]
  AC50: 49.1 µM (active)
[10]
  AC50: 12 µM (active)

## COc1ccc(/C=C2\Sc3ccc(C(=O)NCCCN4CCCC4)cc3N(C)C2=O)cc1OC
cells
  IC50: > 67.5 µM (inactive)
[11]
  AC50: 3.69 µM (active)
[12]
  IC50: > 67.5 µM (inactive)

## CCOc1cccc(C(=O)Nc2ccc3ccccc3c2)c1
[1]
  AC50: 5.43 µM (active)
[13]
  IC50: 4.95 µM (active)
[2]
  AC50: > 52 µM (inactive)
[14]
  IC50: 2.37 µM (active)
[3]
  AC50: > 52 µM (inactive)
[15]
  IC50: 1.46 µM (active)
[6]
  AC50: > 52 µM (inactive)
Caspase-3
  IC50: 3.54 µM (active)
[7]
  AC50: 5.95 µM (active)

## C/C=C1\COC(C(=O)NCc2cccc(OC)c2OC)(C(F)(F)F)C=C1C=C1CCCCC1 (configuration not stated)
[8]
  AC50: 19.8 µM (active)
[9]
  AC50: 22.3 µM (active)
[16]
  AC50: 9 µM (active)
[10]
  AC50: 35.6 µM (active)
[17]
  AC50: 50.1 µM (active)

## O=C(C[C@@H]1C/C=C/CC[C@H](Cc2ccc(F)cc2)C(=O)OC[C@@H](Cc2ccccc2)NC1=O)N[C@H](CO)Cc1ccccc1
[18]
  AC50: 0.956 µM (active)
[19]
  AC50: 33.4 µM (active)
INS1
  AC50: 5 µM (active)
Paired box protein Pax-8
  AC50: 15 µM (active)

## COc1ccc(-n2nnnc2C(c2cccc(OC)c2OC)N2CCC(n3c(O)nc4ccccc43)CC2)cc1 (configuration not stated)
[1]
  AC50: 21.5 µM (active)
[2]
  AC50: > 52 µM (inactive)
[3]
  AC50: 17.6 µM (active)
[6]
  AC50: 25.6 µM (active)
[7]
  AC50: 17.6 µM (active)
